The values below come from patent publication US4889953A, “Glycerol derivatives, their production and use” (Takeda Chemical Industries, Ltd., priority 1986, dated 1989).

In test [1] the test system is Sarcoma 180 cells. Nature of the test: Antitumor action, Sarcoma 180 intraperitoneal in ICR mice, life-span and survivors on 40th day (Test Example 1). Format: in vivo. The conditions noted are these: 0.33 mg/mouse i.p. three times; for Life-span prolongation ratio (T/C, %): only related to mice found dead. As to the method:
Antitumor action of the compounds in Working Examples
ICR mice (a group consisting of five mice) were inoculated intraperitoneally with 1×10^5 Sarcoma 180 cells per mouse, and then given intraperitoneally 0.33 mg/mouse of a compound dissolved in physiological saline, three times, i.e. 1 hour, 1 day and 2 days after inoculation. Reference compound IV, Va or Vb was given to mice under the same conditions. Shown in Table 1 are the life-span prolongation ratio against the untreated control group and the number of survived mice on the 40th day after the initiation of the test.

Test [2] deals with Platelet aggregation caused by PAF. Put plainly: Inhibition of PAF-induced platelet aggregation in rabbit PRP (Test Example 5). The conditions noted are these: Oryctolagus cuniculus, PAF 1×10^-8 M, read-out: inhibition ratio (%) of PAF-induced platelet aggregation; for inhibition at 30 µM: 3 × 10^-5 M; for inhibition at 3 µM: 3 × 10^-6 M; for inhibition at 0.3 µM: 3 × 10^-7 M. Format: cell-based. As to the method:
Blood was collected directly from a male rabbit, using a syringe containing 3.15% of citric acid (at a ratio of 1 part to 9 parts of blood) as an anticoagulant, and centrifuged at 800 rpm for 10 minutes at room temperature to obtain platelet rich plasma (PRP). The remaining blood was centrifuged further at 3000 rpm for 10 minutes to obtain platelet poor plasma (PPP) as the supernatant. By dilution of PRP with PPP, the platelet count was adjusted to about 500,000 cells/μl. After 250 μl of the resulting PRP was stirred at 37° C. for 2 minutes, a certain amount of the test compound was added, and the mixture was stirred for further 2 minutes, and then 1×10^-8 M of PAF was added. Platelet aggregation was measured by using a platelet aggregometer (manufactured by Rika Denki Co. in Japan). The aggregation-inhibiting activity of a test compound was determined from the inhibition ratio against maximal transmittance (maximal aggregation ratio) caused by PAF in the control PRP.

Test [3] deals with Sarcoma 180 cells. Nature of the test: Antitumor action, Sarcoma 180 subcutaneous in ICR mice, intravenous dosing, tumor proliferation inhibition (Test Example 2). Type of test: in vivo. The conditions noted are these: tumor weight after 21 days. As to the method:
(§1) Antitumor action of the compound of Working Example 8
ICR mice (a group consisting of 5 mice) were inoculated subcutaneously with 1×10^6 Sarcoma 180 cells per mouse, and given intravenously 0.03 mg/mouse or 0.3 mg/mouse of the compound of Working Example 8 dissolved in physiological saline 9 times in total, i.e. 8, 9, 10, 13, 14, 15, 16, 17, and 20 days after inoculation. The Reference compound (IV), 0.3 mg/mouse, was given under the same conditions. After 21 days, the tumor tissue was extirpated and the tumor weight was weighed. Shown in Table 2 is tumor proliferation inhibition ratio as compared with the untreated control group.

The test system of test [4] is mouse mammary carcinoma cells MM46. Nature of the test: Antitumor action, MM46 intraperitoneal in C3H mice, life-span and survivors on 40th day (Test Example 3). Format: in vivo. The note with it: 0.25 mg/mouse once a day for 4 days. As to the method:
as §1
C3H mice (a group consisting of 5 mice) were inoculated intraperitoneally with 1×10^4 mouse mammary carcinoma cells MM46 per mouse, and given 0.25 mg/mouse of the compound of Working Example 8 dissolved in physiological saline once a day for 4 consecutive days starting from the second day after the inoculation. The Reference compound (IV) was given under the same conditions. Shown in Table 3 are the life-span prolongation ratio against the untreated control group and the number of survived mice on the 40th day after initiation of the test.

Test [5] has the same test system. Nature of the test: Antitumor action, MM46 intraperitoneal in C3H mice, life-span and survivors on 60th day (Test Example 8). The conditions noted are these: for Life-span prolongation ratio (T/C, %): mice found dead only. Type of test: in vivo. An excerpt:
(§2) Antitumor action of the compounds of Working Examples
C3H mice (a group consisting of 5 mice) were inoculated intraperitoneally with 1×10^4 mouse mammary carcinoma cells MM46 per mouse, […] saline once a day for 4 consecutive days starting from the second day after inoculation. Shown in Table 8 are the life-span prolongation ratio against the untreated control group and the number of survived mice on the 60th day after initiation of the test.

Test [6] deals with Sarcoma 180 cells. Nature of the test: Antitumor action, Sarcoma 180 subcutaneous in ICR mice, oral dosing (Test Example 9). The note with it: 0.3 mg/mouse orally eight times, after 20 days. Type of test: in vivo. The method, then: Antitumor action of the compounds of Working Examples 8 and 24
ICR mice (a group consisting of 5 mice) were inoculated subcutaneously at the dorsolateral area with […] 1×10^6 Sarcoma 180 cells per mouse, and given orally 0.3 mg/mouse of the compound of Example 8 or the compound of Example 24 eight times in total, i.e. 8th, 9th, 10th, 13th, 14th, 15th, 16th, and 17th day after inoculation. After 20 days the tumor tissue was extirpated and the tumor weight was weighed. Shown in Table 9 is tumor proliferation inhibition ratio against the untreated control.

Test [7] has as its system Sarcoma 180 cells. Put plainly: Antitumor action, Sarcoma 180 intraperitoneal in ICR mice, life-span and survivors on 60th day (Test Example 6). Format: in vivo. The note with it: Sarcoma-180, ip, 1440 h; for response vs control in vivo at 0.33 mg: read-out: Life-span prolongation ratio (T/C). The method, then:
as §2
ICR mice (a group consisting of five mice) were inoculated intraperitoneally with 1×10^5 Sarcoma 180 cells per mouse, and then given intraperitoneally 0.33 mg/mouse of a compound dissolved in physiological saline, three times, i.e. 1 hour, 1 day and 2 days after inoculation. Shown in Table 6 are the life-span prolongation ratio against the untreated control group and the number of survived mice on the 60th day after the initiation of the test.

For test [8], the system named is Sarcoma 180 cells. Nature of the test: Antitumor action, Sarcoma 180 subcutaneous in ICR mice, intravenous dosing, tumor proliferation inhibition (Test Example 7). Type of test: in vivo. The note with it: 0.3 mg/mouse i.v. 9 times; tumor weight after 21 days. As to the method: as §2
ICR mice (a group consisting of 5 mice) were inoculated subcutaneously with 1×10^5 Sarcoma 180 cells per mouse, and given intravenously 0.3 mg/mouse of a compound of a Working Example dissolved in physiological saline 9 times in total, i.e. 8, 9, 10, 13, 14, 15, 16, 17, and 20 days after inoculation. After 21 days, the tumor tissue was extirpated and the tumor weight was weighed. Shown in Table 7 is tumor proliferation inhibition ratio as compared with the untreated control group.

Setting [9] is: 0.125 mg/mouse once a day for 4 days.
Where [10] appears, read: 0.25 mg/mouse once a day for 4 days.
Where [11] appears, read: 0.33 mg/mouse i.p. three times, 60th day, read-out: No. of survivors/No. of mice tested (converted).
The mark [12] stands for this setting: 0.33 mg/mouse i.p. three times, survivors on day 60 not included.

Where two headings read alike, the source gives them in different places.

On to `CCCCCCCCCCCCCCCCCCOCC(COCC[N+](C)(C)C)OC` (stereo not drawn) [Compound Va, reference compound], for which, in test [1], the “No. of survivors/No. of mice tested” value is 1/5 and the “Life-span prolongation ratio (T/C, %)” value was 241%. Moreover, in test [2], the inhibition at 30 µM was determined as 27%, the inhibition at 3 µM was 0% and the inhibition at 0.3 µM came out at 0%.
`CCCCCCCCCCCCCCCCCCOCC(COCCCC[N+](C)(C)C)OC` (stereo not drawn) [Compound Vb, reference compound]: in test [1], the “No. of survivors/No. of mice tested” value was 0/5 and the “Life-span prolongation ratio (T/C, %)” value was 291%. In addition, in test [2], the inhibition at 30 µM turned out to be 97%, the inhibition at 3 µM worked out at 5% and the inhibition at 0.3 µM stood at 0%.
In the case of `CCCCCCCCCCCCCCCCCCOCC(COCCOCC[N+](C)(C)C)OC` (stereo not drawn) [Example 8, 2-[2-[2-Methoxy-3-(octadecyloxy)propyloxy]ethoxy]ethyltrimethylammonium chloride], the “No. of survivors/No. of mice tested” value in test [1] is listed as 5/5; in test [4], 5/5; in test [5] (setting [9]) it was 2/5; in test [5] (setting [10]), 3/5. In addition, the “Inhibition ratio (1-T/C) (%)” value in test [3] (0.03 mg/mouse i.v. 9 times) and in test [3] (0.3 mg/mouse i.v. 9 times) was 65% each time. Besides, the inhibition at 30 µM in test [2] was 100%. The inhibition at 3 µM in test [2] was found to be 38%. The inhibition at 0.3 µM in test [2] turned out to be 18%. The results for the “Life-span prolongation ratio (T/C, %)” value in test [5] (setting [9]) and in test [5] (setting [10]) were 144% and 315%, respectively. Besides, the “Weight of tumor” value in test [6] turned out to be 0.35 ± 0.04 g. Also, the “Inhibition ratio (%)” value in test [6] (against untreated control) was 75%.
On to `CCCCCCCCCCCCCCCCCCOCC(COCCOCCOCC[N+](C)(C)C)OC` (stereo not drawn) [Example 9, 2-[2-[2-[2-Methoxy-3-(octadecyloxy)propyloxy]ethoxy]ethoxy]ethyltrimethylammonium chloride], for which, in test [1], the “No. of survivors/No. of mice tested” value is recorded as 1/5 and the “Life-span prolongation ratio (T/C, %)” value was determined as 247%. Also, in test [2], the inhibition at 30 µM amounted to 100%, the inhibition at 3 µM turned out to be 66% and the inhibition at 0.3 µM was found to be 3%.
With `CCCCCCCCCCCCCCCCCCOCC(COCCOCC[N+](C)(C)C)OC(=O)CC(C)=O.[Cl-]` (stereo not drawn) [Example 12, 2-[2-[2-(Acetoacetyloxy)-3-(octadecyloxy)propyloxy]ethoxy]ethyltrimethylammonium chloride], the responders at 0.33 mg in test [7] (setting [11]) is 40%. Further, the response vs control in vivo at 0.33 mg in test [7] (setting [12]) was 292%. In test [5] (setting [10]), the “No. of survivors/No. of mice tested” value is reported as 3/5 and the “Life-span prolongation ratio (T/C, %)” value came to 126%. The “No. of survivors/No. of mice tested” value in test [5] (0.5 mg/mouse once a day for 4 days) was 5/5.
With `CCCCCCCCCCCCCCCCCCOCC(COCCOCCOCC[N+](C)(C)C)OC(=O)CC(C)=O` (stereo not drawn) [Example 15, 2-[2-[2-[2-(Acetoacetyloxy)-3-(octadecyloxy)propyloxy]ethoxy]ethoxy]ethyltrimethylammonium chloride], in test [1], the “No. of survivors/No. of mice tested” value was 4/5 and the “Life-span prolongation ratio (T/C, %)” value is recorded as 291%. In test [2], the inhibition at 30 µM was found to be 100% and the inhibition at 3 µM turned out to be 43%.
As for `CC(=O)CC(=O)OC(COCCCCCCCCCCCCC1CCCCC1)COCCOCC[N+](C)(C)C` (stereo not drawn) [Example 26, 2-[2-[2-Acetoacetyloxy-3-(12-cyclohexyl)dodecyloxypropyloxy]ethoxy]ethyltrimethylammonium chloride], the responders at 0.33 mg in test [7] (setting [11]) was 0%. Also, the response vs control in vivo at 0.33 mg in test [7] (setting [12]) was found to be 295%. Besides, in test [8], the “Inhibition ratio (1-T/C) (%)” value is recorded as 60%.
In the case of `CCCCCCCCCCCCCCCCCCOCC(COCCOCC[N+](C)(C)C)OCC(C)=O` (stereo not drawn) [Example 29, 2-[2-[3-(Octadecyloxy)-2-(2-oxopropyloxy)propyloxy]ethoxy]ethyltrimethylammonium chloride], the responders at 0.33 mg in test [7] (setting [11]) was 60%. Besides, the response vs control in vivo at 0.33 mg in test [7] (setting [12]) was 220%.
For `CCCCCCCCCCCCCCCCCCOCC(COCCOCC[N+](C)(C)C)OC(=S)NC` (stereo not drawn) [Example 42, 2-[2-[2-(Methylthiocarbamoyloxy)-3-(octadecyloxy)propyloxy]ethoxy]ethyltrimethylammonium chloride], in test [7] (setting [11]), the responders at 0.33 mg was 0%. Besides, the response vs control in vivo at 0.33 mg in test [7] (setting [12]) was 340%.
As for `CNC(=S)OC(COCCCCCCCCCCCCC1CCCCC1)COCCOCC[N+](C)(C)C` (stereo not drawn) [Example 43, 2-[2-[3-(12-Cyclohexyl)dodecyloxy-2-N-methylthiocarbamoyloxypropyloxy]ethoxy]ethyltrimethylammonium chloride], in test [7] (setting [11]), the responders at 0.33 mg is 20%. In addition, in test [7] (setting [12]), the response vs control in vivo at 0.33 mg stood at 323%.
For the compound `CCCCCCCCCCCCCCCCCCOCC(COCCOCC[N+](C)(C)C)OCC1CO1` (stereo not drawn) [Example 47, 2-[2-[2-(2,3-Epoxypropyloxy)-3-(octadecyloxy)propyloxy]ethoxy]ethyltrimethylammonium chloride], the responders at 0.33 mg in test [7] (setting [11]) was 20%. Besides, in test [7] (setting [12]), the response vs control in vivo at 0.33 mg was 237%.
Turning to `COC(COCCCCCCCCCCCC(F)(F)C(F)(F)C(F)(F)C(F)(F)C(F)(F)C(F)(F)C(F)(F)C(F)(F)F)COCCOCC[N+](C)(C)C` (stereo not drawn) [Example 51, 2-[2-[2-Methoxy-3-(12,12,13,13,14,14,15,15,16,16, 17,17,18,18,19,19,19-heptadecafluorononadecyloxy)propyloxy)ethoxy]ethyltrimethylammonium chloride], the response vs control in vivo at 0.33 mg in test [7] (Mus musculus) was determined as 295%. The responders at 0.33 mg in test [7] (Mus musculus, read-out: No. of survivors/No. of mice tested) worked out at 0%.
In the case of `COC(COCCOCC[N+](C)(C)C)COCCC(C)CCCC(C)CCCC(C)CCCC(C)C` (stereo not drawn) [Example 59, 2-[2-[2-Methoxy-3-(3,7,11,15-tetramethylhexadecyloxy)propyloxy]ethoxy]ethyltrimethylammonium chloride], the responders at 0.33 mg in test [7] (setting [11]) is 0%. Moreover, in test [7] (setting [12]), the response vs control in vivo at 0.33 mg worked out at 224%.
`C[N+](C)(C)CCOCCOCC(COCCCCCCCCCCCCC1CCCCC1)OCC(=O)[O-]` (stereo not drawn) [Example 66, 3-(12-Cyclohexyldodecyloxy)methyl-10-trimethylammonio-2,5,8-trioxadecane carboxylate]: the responders at 0.33 mg in test [7] (setting [11]) was 0%. For the same compound, the response vs control in vivo at 0.33 mg in test [7] (setting [12]) was determined as 235%.
